Where two headings read alike, the source gives them in different places.
How the values were obtained:
PPARδ = molecular target: T1, PPARδ (Homo sapiens, UniProt Q03181); experiment: PPAR transactivation assay in COS-7 cells (Gal4-hPPAR-LBD, luciferase); assay type: cell-based
T1 construct: expressed in transfected cells; host or cells: COS-7
Procedure: (§1) COS-7 cells (PPAR) were grown in DMEM high glucose, supplemented with 10% fetal calf serum (FCS), 1% sodium pyruvate (SP) and 1% penicillin/streptomycin (PS) at 37° C. and 5% CO2. Used plasmids for PPAR transactivation assay are shown under supporting informations.
(§2) The day before transfection, COS-7 cells were seeded in 96-well plates with a density of 30,000 cells per well. Transient transfection was carried out using Lipofectamine LTX reagent (Invitrogen, Carlsbad, Calif., USA) according to the manufacturer's protocol with pFR-Luc (Stratagene), pRL-SV40 (Promega) and the Ga14-fusion receptor plasmids (pFA-CMV-hPPAR-LBD) of the respective PPAR subtype. 5 h after transfection, medium was changed to DMEM without phenol red and 10% FCS, supplemented with 1% SP, 1% PS and 1% L-glutamine, now additionally containing 0.1% DMSO and the respective test compound or 0.1% DMSO alone as untreated control. Each concentration was tested in triplicate wells and each experiment was repeated independently at least three times. Following overnight incubation with the test compounds, cells were assayed for luciferase activity using Dual-Glo™ Luciferase Assay System (Promega) according to the manufacturer's protocol. Luminescence was measured with an Infinite m200 luminometer (Tecan Deutschland GmbH). Each concentration of the compounds was tested in triplicate wells. Normalization for transfection efficacy and cell growth was done by division of the firefly luciferase data by renilla luciferase data resulting in relative light units. Activation factors were obtained by dividing by DMSO control. […] All compounds were evaluated by comparison of the achieved maximum effect to that of the reference compound (pioglitazone for PPARγ, GW7647 for PPARa, and L165041 for PPARS each with 1 μM). Data are expressed as mean±SE; n≥3.
(§3) The Gal4-fusion receptor plasmids pFA-CMV-PPARa-LBD, pFA-CMV-PPARS-LBD and pFA-CMV-PPARγ-LBD containing the hinge region and ligand binding domain (LBD) for each of the PPAR subtypes, respectively, were constructed by integrating cDNA fragments obtained from PCR amplification of human monocytes into the SmaI/XbaI cleavage site of the pFA-CMV vector (Stratagene, La Jolla, Calif., USA) and have already been published. […] Frame and sequence of the fusion receptors were verified by sequencing. pFR-Luc (Stratagene) was used as reporter plasmid and pRL-SV40 (Promega) for normalization of transfection efficacy and cell growth.

PPARα = molecular target: T2, PPARα (Homo sapiens, UniProt Q07869); assay type: cell-based; settings: for PPARα activation @10 μM: at 10 μM
T2 construct: expressed in transfected cells; host or cells: COS-7
T2 sequence (Q07869 239-466): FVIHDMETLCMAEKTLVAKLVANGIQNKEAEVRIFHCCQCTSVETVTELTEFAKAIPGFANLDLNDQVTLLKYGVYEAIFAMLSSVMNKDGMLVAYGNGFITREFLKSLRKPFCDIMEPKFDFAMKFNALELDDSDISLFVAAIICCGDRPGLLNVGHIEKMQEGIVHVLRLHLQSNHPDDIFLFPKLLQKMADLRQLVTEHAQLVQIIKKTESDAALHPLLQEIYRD
Procedure: as §1, §2, §3

recombinant human sEH = molecular target: T3, recombinant human sEH (Homo sapiens, UniProt P34913); experiment: biochemical; settings: read-out: IC50 sEH (converted)
T3 sequence (P34913 1-555): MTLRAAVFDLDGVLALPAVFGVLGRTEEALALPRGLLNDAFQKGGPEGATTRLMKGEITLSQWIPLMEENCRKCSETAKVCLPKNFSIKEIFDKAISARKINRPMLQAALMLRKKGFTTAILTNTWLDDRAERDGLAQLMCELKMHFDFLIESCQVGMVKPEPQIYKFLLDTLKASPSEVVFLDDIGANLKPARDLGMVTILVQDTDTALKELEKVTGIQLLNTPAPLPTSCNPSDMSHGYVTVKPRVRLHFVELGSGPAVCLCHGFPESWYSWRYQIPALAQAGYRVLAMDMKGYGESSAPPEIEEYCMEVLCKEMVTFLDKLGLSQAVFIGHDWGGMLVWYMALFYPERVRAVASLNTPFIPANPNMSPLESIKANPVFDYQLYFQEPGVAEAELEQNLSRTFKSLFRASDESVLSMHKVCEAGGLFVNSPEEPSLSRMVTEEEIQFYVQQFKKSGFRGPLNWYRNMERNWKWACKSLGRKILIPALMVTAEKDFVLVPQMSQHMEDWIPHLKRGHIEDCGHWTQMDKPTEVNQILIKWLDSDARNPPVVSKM

T1 sequence (Q03181 211-439): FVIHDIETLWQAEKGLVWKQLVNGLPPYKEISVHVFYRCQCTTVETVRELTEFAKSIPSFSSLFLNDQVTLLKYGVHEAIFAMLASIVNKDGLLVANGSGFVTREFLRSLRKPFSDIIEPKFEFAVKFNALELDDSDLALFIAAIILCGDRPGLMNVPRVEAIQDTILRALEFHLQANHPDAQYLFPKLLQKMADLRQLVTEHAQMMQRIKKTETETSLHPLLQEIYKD

SMILES	IC50 (recombinant human sEH)	further results
CCOC(=O)C(CC)Cc1ccc(C(=O)NCc2ccccc2)cc1 (centres unmarked) [Compound 2b, Ethyl 2-ethyl 3-[4-(N-benzylbenzamide)]propanoate]		EC50 PPARδ (PPARδ): n.t. i.a. i.a. n.t.; EC50 PPARα (PPARα): n.t. i.a. i.a. n.t.
CC/C(=C\c1ccc(C(=O)NCc2ccccc2)cc1)C(=O)O [Compound 2d, (E)-4-[N-Benzylbenzamide]-alpha-ethylcinnamic acid]	9300 nM	
CCOC(=O)/C(=C/c1ccc(C(=O)NCc2ccccc2C)cc1)CC [Compound 3a, Ethyl (E)-4-[N-((2-methyl)benzyl)benzamide]-alpha-ethylcinnamate]	760 ± 50 nM	
CCOC(=O)C(CC)Cc1ccc(C(=O)NCc2ccccc2C)cc1 (centres unmarked) [Compound 3b, Ethyl 2-ethyl 3-[4-(N-((2-methyl)benzyl)benzamide)]propanoate]		EC50 PPARδ (PPARδ; i.a. = inactive): n.t. i.a. i.a. n.t.; PPARα activation @10 μM (PPARα; compared to GW7647 1 μM): 15%
CC/C(=C\c1ccc(C(=O)NCc2ccccc2C)cc1)C(=O)O [Compound 3d, (E)-4-[N-((2-Methyl)benzyl)benzamide]-alpha-ethylcinnamic acid]	10000 nM	
CCOC(=O)/C(=C/c1ccc(C(=O)NCc2ccccc2Cl)cc1)CC [Compound 4a, Ethyl (E)-4-[N-((2-chloro)benzyl)benzamide]-alpha-ethylcinnamate]	410 ± 140 nM	
CCOC(=O)C(CC)Cc1ccc(C(=O)NCc2ccccc2Cl)cc1 (centres unmarked) [Compound 4b, Ethyl 2-ethyl 3-[4-(N-((2-chloro)benzyl)benzamide)]propanoate]		EC50 PPARδ (PPARδ; i.a. = inactive): n.t. i.a. i.a. n.t.; EC50 PPARα (PPARα; i.a. = inactive): n.t. i.a. i.a. n.t.
CC/C(=C\c1ccc(C(=O)NCc2ccccc2Cl)cc1)C(=O)O [Compound 4d, (E)-4-[N-((2-Chloro)benzyl)benzamide]-alpha-ethylcinnamic acid]	2800 nM	
CCOC(=O)/C(=C/c1ccc(C(=O)NCc2ccccc2Br)cc1)CC [Compound 5a, Ethyl (E)-4-[N-((2-bromo)benzyl)benzamide]-alpha-ethylcinnamate]	300 ± 80 nM	
CC/C(=C\c1ccc(C(=O)NCc2ccccc2Br)cc1)C(=O)O [Compound 5d, (E)-4-[N-((2-Bromo)benzyl)benzamide]-alpha-ethylcinnamic acid]	2400 nM	
CC/C(=C\c1ccc(C(=O)NCc2ccccc2OC(F)(F)F)cc1)C(=O)O [Compound 6d, (E)-4-[N-((2-Trifluoromethoxy)benzyl)benzamide]-alpha-ethylcinnamic acid]	900 nM	
CCOC(=O)/C(=C/c1ccc(C(=O)NCc2ccc(F)cc2)cc1)CC [Compound 7a, Ethyl (E)-4-[N-((4-fluoro)benzyl)benzamide]-alpha-ethylcinnamate]	62 ± 3 nM	
CCOC(=O)C(CC)Cc1ccc(C(=O)NCc2ccc(F)cc2)cc1 (centres unmarked) [Compound 7b, Ethyl 2-ethyl 3-[4-(N-((4-fluoro)benzyl)benzamide)]propanoate]		EC50 PPARδ (PPARδ): n.t. i.a. i.a. n.t.; EC50 PPARα (PPARα): n.t. i.a. i.a. n.t.
CC/C(=C\c1ccc(C(=O)NCc2ccc(F)cc2)cc1)C(=O)O [Compound 7d, (E)-4-[N-((4-Fluoro)benzyl)benzamide]-alpha-ethylcinnamic acid]	6700 nM	
CCOC(=O)/C(=C/c1ccc(C(=O)NCc2ccc(C(F)(F)F)cc2)cc1)CC [Compound 8a, Ethyl (E)-4-[N-((4-trifluoromethyl)benzyl)benzamide]-alpha-ethylcinnamate]	550 ± 60 nM	
CCOC(=O)C(CC)Cc1ccc(C(=O)NCc2ccc(C(F)(F)F)cc2)cc1 (centres unmarked) [Compound 8b, Ethyl 2-ethyl 3-[4-(N-((4-trifluoromethyl)benzyl)benzamide)]propanoate]		EC50 PPARδ (PPARδ; i.a. = inactive): n.t. i.a. i.a. n.t.; PPARα activation @10 μM (PPARα; compared to GW7647 1 μM): 22%
CCC(Cc1ccc(C(=O)NCc2ccc(C(F)(F)F)cc2)cc1)C(=O)O (centres unmarked) [Compound 8c, 2-Ethyl 3-[4-(N-((4-trifluoromethyl)benzyl)benzamide)]propionic acid]		EC50 PPARδ (PPARδ; i.a. = inactive): n.t. i.a. i.a. n.t.

SMILES	IC50 (recombinant human sEH)	further results
CCOC(=O)/C(=C/c1ccc(C(=O)NCc2ccc(OC(F)(F)F)cc2)cc1)CC [Compound 9a, Ethyl (E)-4-[N-((4-trifluoromethoxy)benzyl)benzamide]-alpha-ethylcinnamate]	880 ± 100 nM	
CCOC(=O)C(CC)Cc1ccc(C(=O)NCc2ccc(OC(F)(F)F)cc2)cc1 (centres unmarked) [Compound 9b, Ethyl 2-ethyl 3-[4-(N-((4-trifluoromethoxy)benzyl)benzamide)]propanoate]		EC50 PPARδ (PPARδ; i.a. = inactive): n.t. i.a. i.a. n.t.
CCC(Cc1ccc(C(=O)NCc2ccc(OC(F)(F)F)cc2)cc1)C(=O)O (centres unmarked) [Compound 9c, 2-Ethyl 3-[4-(N-((4-trifluoromethoxy)benzyl)benzamide)]propionic acid]		EC50 PPARδ (PPARδ; i.a. = inactive): n.t. i.a. i.a. n.t.
CC/C(=C\c1ccc(C(=O)NCc2ccc(OC(F)(F)F)cc2)cc1)C(=O)O [Compound 9d, (E)-4-[N-((4-Trifluoromethoxy)benzyl)benzamide]-alpha-ethylcinnamic acid]	1600 nM	
CC/C(=C\c1ccc(C(=O)NCc2ccc(OC)cc2)cc1)C(=O)O [Compound 10d, (E)-4-[N-((4-Methoxy)benzyl)benzamide]-alpha-ethylcinnamic acid]	13000 nM	
CCOC(=O)/C(=C/c1ccc(C(=O)NCc2ccc(Oc3ccccc3)cc2)cc1)CC [Compound 12a, Ethyl (E)-4-[N-((4-phenoxy)benzyl)benzamide]-alpha-ethylcinnamate]	1400 ± 60 nM	
CCOC(=O)C(CC)Cc1ccc(C(=O)NCc2ccc(Oc3ccccc3)cc2)cc1 (centres unmarked) [Compound 12b, Ethyl 2-ethyl 3-[4-(N-((4-phenoxy)benzyl)benzamide)]propanoate]		EC50 PPARδ (PPARδ; i.a. = inactive): i.a.; Emax-% PPARα (maximum activation in percent) (PPARα; compared to GW7647 1 μM): 110%
CC/C(=C\c1ccc(C(=O)NCc2ccc(Oc3ccccc3)cc2)cc1)C(=O)O [Compound 12d, (E)-4-[N-((4-Phenoxy)benzyl)benzamide]-alpha-ethylcinnamic acid]	800 nM	
CCOC(=O)/C(=C/c1ccc(C(=O)NCc2ccc(F)cc2C(F)(F)F)cc1)CC [Compound 13a]	100 ± 10 nM	
CCOC(=O)C(CC)Cc1ccc(C(=O)NCc2ccc(F)cc2C(F)(F)F)cc1 (centres unmarked) [Compound 13b, Ethyl 2-ethyl 3-[4-(N-(4-fluoro(2-trifluoromethyl)benzyl)benzamide)]propanoate]		EC50 PPARδ (PPARδ; i.a. = inactive): n.t. i.a. i.a. n.t.; EC50 PPARα (PPARα; i.a. = inactive): n.t. i.a. i.a. n.t.
CCC(Cc1ccc(C(=O)NCc2ccc(F)cc2C(F)(F)F)cc1)C(=O)O (centres unmarked) [Compound 13c, 2-Ethyl 3-[4-(N-(4-fluoro(2-trifluoromethyl)benzyl)benzamide)]propionic acid]		EC50 PPARδ (PPARδ; i.a. = inactive): n.t. i.a. i.a. n.t.; EC50 PPARα (PPARα; i.a. = inactive): n.t. i.a. i.a. n.t.
CC/C(=C\c1ccc(C(=O)NCc2ccc(F)cc2C(F)(F)F)cc1)C(=O)O [Compound 13d, (E)-4-[N-((4-Fluoro(2-trifluoromethyl))benzyl)benzamide]-alpha-ethylcinnamic acid]	1200 nM	
CCOC(=O)/C(=C/c1ccc(C(=O)NCc2ccc(OC)cc2C(F)(F)F)cc1)CC [Compound 14a]	50 ± 9 nM	
CC/C(=C\c1ccc(C(=O)NCc2ccc(OC)cc2C(F)(F)F)cc1)C(=O)O [Compound 14d]	400 nM	
CCOC(=O)/C(=C/c1cccc(C(=O)NCc2ccccc2C(F)(F)F)c1)CC [Compound 15a, Ethyl (E)-3-[N-((2-trifluoromethyl)benzyl)benzamide]-alpha-ethylcinnamate]	40 ± 6 nM	
CC/C(=C\c1cccc(C(=O)NCc2ccccc2C(F)(F)F)c1)C(=O)O [Compound 15d, (E)-3-[N-((2-Trifluoromethyl)benzyl)benzamide]-alpha-ethylcinnamic acid]	400 ± 100 nM	

— US11447445B2, “Diabetes and metabolic syndrome treatment with a novel dual modulator of soluble epoxide hydrolase and peroxisome proliferator-activated receptors” (priority 2015, dated 2022)
